Experimental findings from patent US7709533B2, “Imines as ion channel modulators” (Icagen, Inc., priority 2005, dated 2010) are described below.

The target in the experiment is T1, human intermediate-conductance, calcium-activated K+ channels (h-IK1) (Homo sapiens, UniProt O15554).
T1 construct: expressed in transfected cells; host or cells: CHO-K1 (ATCC CCL-61), kept under G-418 selection
As to the kind of experiment: Rubidium efflux assay (86Rb+ efflux, CHO-K1 cells expressing h-IK1). The class given is cell-based. As to conditions: hIK1 in CHO-K1 cells; 86Rb+ efflux stimulated with ionomycin; drug 0.01-30 μM, 6 min preincubation, 10 min efflux; read-out: IK1 Inhibitory Activity. How it is done: CHO-K1 cells (American Type Culture Collection, CCL-61) expressing human intermediate-conductance, calcium-activated K^+ channels (h-IK1) are cultured in Ham's F-12 medium (HyClone) supplemented with 10% heat inactivated fetal bovine serum (Nova-Tech) and 400 μg/mL G-418 (Geneticin, Life Technologies), in an incubator at 37° C. with a humidified atmosphere of 5% CO2. Cells are typically sub-cultured twice per week. When the culture flask reaches 70%-90% confluency, the culture medium is removed, cells are rinsed twice with calcium and magnesium-free Dulbecco's phospate buffed saline (PBS) and a 0.05% trypsin/0.5 mM EDTA in HBSS solution is added until cells begin to round up (typically 2-5 min). Twenty four hours prior to the experiment, cells are removed from the culture flask and resuspended in Ham's F-12 medium supplemented with 10% heat inactivated fetal bovine serum, 50 μg/mL streptomycin, 50 U/mL penicillin, 10 mM HEPES, pH 7.2, and plated on 96 well, cell culture treated, flat bottomed trays (TPP 96, 4×10^6 cells per 96 well plate; 100 μL/well). Cells are loaded with ^86Rb^+ by incubating the cells overnight in culture medium containing 1 μCi/ml ^86RbCl (Perkin-Elmer) using a Labsystems Multidrop. On the day of the experiment, Culture media is removed and the cells are washed 4 times with 100 μL per well of zero Ca^2+ Earl's Balanced Salt Solution (EBSS)[composition (mM): NaCl (138), KCl (5.4), MgCl2 (1), glucose (10), HEPES (10), pH 7.4 with 10N NaOH]. Cells were preincubated with drug (0.01-30 μM) in low Ca^2+ EBSS, [composition (mM): NaCl (138), CaCl2 (0.25), KCl (5.4), MgCl2 (1), glucose (10), HEPES (10), pH 7.4 with 10N NaOH] for 6 min. ^86Rb^+ efflux is stimulated by exposing cells to regular EBSS [composition (mM): NaCl (138), CaCl2 (1.8), KCl (5.4), MgCl2 (1), glucose (10), HEPES (10), pH 7.4 with 10N NaOH] supplemented with […] ionomycin (Calbiochem), in the continued presence of drug. After a 10 min efflux period, the EBSS/ionomycin solution is removed from the cells and the ^86Rb^+ content determined by Cherenkov counting (Wallac 1450 Microbeta Trilux liquid scintillation and luminescence counter). Cells are then lysed with 100 μL 0.1% SDS solution per well, and the ^86Rb^+ content of the lysate determined. Percent ^86Rb^+ efflux is calculated according to the following formula: (^86Rb^+ content in EBSS/(^86Rb^+ content in EBSS+^86Rb^+ content of the lysate))×100.

pIC50: −log10 of the molar value.

In the case of `N=C(N)C(c1ccc(F)cc1)(c1ccc(F)cc1)c1ccc(F)cc1` [Example 18, 2,2,2-Tris-(4-fluoro-phenyl)-acetamidine], the pIC50 was 5.00 to 6.00.
With `N=C(NN)C(c1ccc(F)cc1)(c1ccc(F)cc1)c1ccc(F)cc1` [Example 10, 2,2,2-Tris-(4-fluoro-phenyl)-N-amino-acetamidine] the figure was 6.00 to 6.30; with `N=C(NN)C(c1ccccc1)(c1ccc(F)cc1)c1ccc(F)cc1` [Example 9, 2,2-Bis-(4-fluoro-phenyl)-N-amino-2-phenyl-acetamidine], 6.00 to 6.30; with `CC(=NN)C(c1ccccc1)(c1ccccc1)c1ccccc1` [Example 25, (1-Methyl-2,2,2-triphenyl-ethylidene)-hydrazine], 5.00 to 6.00.
With `CCON=C(C)C(c1ccccc1)(c1ccccc1)c1ccccc1` [Example 33, 1,1,1-Triphenyl-propan-2-one O-ethyl-oxime], the pIC50 was less than 5.00.
In the case of `N=C(NO)C(c1ccccc1)(c1ccccc1)c1ccc(O)cc1` [Example 24, N-Hydroxy-2-(4-hydroxy-phenyl)-2,2-diphenyl-acetamidine], the pIC50 is 5.00 to 6.00.
The value for `N=C(NO)C(c1ccccc1)(c1ccccc1)c1cccc(F)n1` [Example 13, 2-(6-Fluoro-pyridin-2-yl)-N-hydroxy-2,2-diphenyl-acetamidine] was 6.00 to 6.30.
The value for `N=C(NO)C(c1cccc(F)n1)(c1cccc(F)n1)c1cccc(F)n1` [Example 30, 2,2,2-Tris-(6-fluoro-pyridin-2-yl)-N-hydroxy-acetamidine] was less than 5.00; that for `N=C(NO)C(c1ccccc1)(c1ccccc1)c1ccccc1` [Example 11, N-Hydroxy-2,2,2-triphenyl-acetamidine] was 6.00 to 6.30.
Take `N=C(N)C(c1ccccc1)(c1ccc(F)cc1)c1ccc(F)cc1` [Example 21, 2,2-Bis-(4-fluoro-phenyl)-2-phenyl-acetamidine]: the pIC50 was 5.00 to 6.00.
In the case of `N=C(NO)C(c1ccccc1)(c1ccccc1)c1ccccc1Cl` [2-(2-Chloro-phenyl)-N-hydroxy-2,2-diphenyl-acetamidine], the pIC50 is more than 6.30.
With `CON=CC(c1ccccc1)(c1ccccc1)c1ccccc1Cl` [Example 7, (2-Chloro-phenyl)-diphenyl-acetaldehyde O-methyl-oxime] the figure was more than 6.30; with `CC(=NO)C(c1ccccc1)(c1ccccc1)c1ccccc1` [Example 34, 1,1,1-Triphenyl-propan-2-one oxime], less than 5.00; with `Cc1ccc(C(C(=N)N)(c2cccc(F)c2)c2cccc(F)c2)cn1` [Example 17, 2,2-Bis-(3-fluoro-phenyl)-2-(6-methyl-pyridin-3-yl)-acetamidine], 5.00 to 6.00.
With `N=C(NO)C(c1ccc(F)cc1)(c1ccc(F)cc1)c1ccc(F)cc1` [Example 3, 2,2,2-Tris-(4-fluoro-phenyl)-N-hydroxy-acetamidine] the figure was more than 6.30; with `Cc1nc(C(c2ccccc2)(c2ccccc2)c2cccc(F)n2)no1` [Example 16, 2-Fluoro-6-[(5-methyl-[1,2,4]oxadiazol-3-yl)-diphenyl-methyl]-pyridine], 5.00 to 6.00; with `COc1ccc(C(C(=N)NO)(c2ccc(OC)cc2)c2ccc(OC)cc2)cc1` [Example 31, N-Hydroxy-2,2,2-tris-(4-methoxy-phenyl)-acetamidine], less than 5.00.
Turning to `N=C(NO)C(c1ccccc1)(c1ccc(F)cc1)c1ccccc1F` (centres unmarked) [Example 1, 2-(2-Fluoro-phenyl)-2-(4-fluoro-phenyl)-N-hydroxy-2-phenyl-acetamidine], the pIC50 was more than 6.30.
Take `N=C(NO)C(c1ccc(F)cc1)(c1ccc(F)cc1)c1ccccc1Cl` [Example 5, 2-(2-Chloro-phenyl)-2,2-bis-(4-fluoro-phenyl)-N-hydroxy-acetamidine]: the pIC50 was more than 6.30.
For `COC(=N)C(c1ccc(F)cc1)(c1ccc(F)cc1)c1ccc(F)cc1` [Example 27, 2,2,2-Tris-(4-fluoro-phenyl)-acetimidic acid methyl ester], the pIC50 was 5.00 to 6.00.
Turning to `ON=CC(c1ccccc1)(c1ccccc1)c1ccccc1Cl` [Example 6, (2-Chloro-phenyl)-diphenyl-acetaldehyde oxime], the pIC50 is more than 6.30.
For the compound `N=C(NO)C(c1ccccc1)(c1ccc(F)cc1)c1ccc(F)cc1` [Example 2, 2,2-Bis-(4-fluoro-phenyl)-N-hydroxy-2-phenyl-acetamidine], the pIC50 was more than 6.30.
The value for `CN=C(OC)C(c1ccccc1)(c1ccc(F)cc1)c1ccc(F)cc1` [Example 29, 2,2-Bis-(4-fluoro-phenyl)-N-methyl-2-phenyl-acetimidic acid methyl ester] was 5.00 to 6.00; that for `COc1ccc(C(C(=N)NO)(c2ccccc2)c2ccc(OC)cc2)cc1` [Example 23, N-Hydroxy-2,2-bis-(4-methoxy-phenyl)-2-phenyl-acetamidine] was 5.00 to 6.00.
Regarding `N=C(N)C(c1cccc(F)n1)(c1cccc(F)n1)c1cccc(F)n1` [Example 15, 2,2,2-Tris-(6-fluoro-pyridin-2-yl)-acetamidine], the pIC50 is 5.00 to 6.00.
For the compound `CON=C(C)C(c1ccccc1)(c1ccccc1)c1ccccc1` [Example 26, 1,1,1-Triphenyl-propan-2-one O-methyl-oxime], the pIC50 is 5.00 to 6.00.
With `N=C(N)C(c1ccccc1)(c1ccccc1)c1ccccc1` [Example 22, 2,2,2-Triphenyl-acetamidine] the figure was 5.00 to 6.00; with `CC(C)ONC(=N)C(c1ccc(F)cc1)(c1ccc(F)cc1)c1ccc(F)cc1` [Example 20, 2,2,2-Tris-(4-fluoro-phenyl)-N-isopropoxy-acetamidine], 5.00 to 6.00.
As to `CCONC(=N)C(c1ccc(F)cc1)(c1ccc(F)cc1)c1ccc(F)cc1` [Example 4, N-Ethoxy-2,2,2-tris-(4-fluoro-phenyl)-acetamidine], the pIC50 was more than 6.30.
The value for `N=C(NO)C(c1cccc(F)c1)(c1cccc(F)n1)c1cccc(F)n1` [Example 14, 2-(3-Fluoro-phenyl)-2,2-bis-(6-fluoro-pyridin-2-yl)-N-hydroxy-acetamidine] was 5.00 to 6.00; that for `COc1ccc(C(C(=N)NO)(c2ccccc2)c2ccccc2)cc1` [Example 12, N-Hydroxy-2-(4-methoxy-phenyl)-2,2-diphenyl-acetamidine] was 6.00 to 6.30.
With `N=C(NO)C(c1ccccc1)(c1ccc(O)cc1)c1ccc(O)cc1` [Example 32, N-Hydroxy-2,2-bis-(4-hydroxy-phenyl)-2-phenyl-acetamidine] the figure was less than 5.00.
Turning to `COC(=N)C(c1ccccc1)(c1ccc(F)cc1)c1ccc(F)cc1` [Example 28, 2,2-Bis-(4-fluoro-phenyl)-2-phenyl-acetimidic acid methyl ester], the pIC50 is 5.00 to 6.00.
With `CONC(=N)C(c1ccccc1)(c1ccc(F)cc1)c1ccc(F)cc1` [Example 8, 2,2-Bis-(4-fluoro-phenyl)-N-methoxy-2-phenyl-acetamidine] the figure was more than 6.30; with `CONC(=N)C(c1ccc(F)cc1)(c1ccc(F)cc1)c1ccc(F)cc1` [Example 19, 2,2,2-Tris-(4-fluoro-phenyl)-N-methoxy-acetamidine], 5.00 to 6.00.
